Data on six compounds can be found in US12622938B2 (priority 2020, dated 2026).

A word on the inhibition: it is the change of the read-out against control, counted positive when it falls. Broadly, the IC50 is the midpoint of a concentration-inhibition curve. What is called EC50 is the concentration needed to bring the measured effect to its halfway point.

Each structure is given as a SMILES string. Converted amounts (≈) assume the structure as drawn.

One series concerns Vaccinia virus. Description: microbe, parasite or virus in culture. It is filed as cell-based.
Series [1] relates to Flu A (H5N1) Vietnam/1203/2004H. Description: microbe, parasite or virus in culture. It is filed as cell-based.
Series [2] has as its system Flu B Malaysia/2506/2004. Description: Flu B Malaysia/2506/2004, Neutral Red assay, MDCK. It is filed as cell-based. Particulars: control compound.
Series [3] relates to Flu B Malaysia/2506/2004. Nature of the series: Flu B Malaysia/2506/2004, Visual assay, MDCK. It is filed as cell-based.
Series [4] relates to Flu B Shanghai/361/02. Nature of the series: Flu B Shanghai/361/02, Neutral Red assay, MDCK. It counts as cell-based. Particulars: control compound, read-out: CTRL IC50.
Series [5] concerns Flu B Shanghai/361/02. Description: Flu B Shanghai/361/02, Visual assay, MDCK. It counts as cell-based.
The subject of another series is HFF cells. Particulars: human.

For the compound `Nc1ccn(C[C@@H](CO)OCP(=O)(O)O)c(=O)n1` [Cidofovir], the inhibition at 0.56 µg/mL in the series with Vaccinia virus (Orthopoxvirus vaccinia, HFF, 0.56 μg/mL, read-out: Viral Inhibition Rate) was 11%. Further, the inhibition at 1.67 µg/mL in the series with Vaccinia virus (Orthopoxvirus vaccinia, HFF, 1.67 μg/mL, read-out: Viral Inhibition Rate) was found to be 53%.

Take `C=C(CC[C@@H](C(=O)O)[C@H]1C[C@H](O)[C@@]2(C)C3=CC[C@H]4C(C)(C)[C@@H](O)CC[C@]4(C)C3=CC[C@]12C)C(C)C` [Dehydrosulphurenic Acid]: the figures for the “Viral Inhibition Rate” value in the series on Vaccinia virus (11 μg/mL) and in the series with Vaccinia virus (33 μg/mL) were 16% and 58%, respectively.

Regarding `C=C(CC[C@@H](C(=O)O)[C@H]1CC[C@@]2(C)C3=C(CC[C@]12C)[C@@]1(C)CC[C@H](O)C(C)(C)[C@@H]1CC3)C(C)C` [Eburicoic Acid], the inhibition at 11 µg/mL with Vaccinia virus (Orthopoxvirus vaccinia, HFF, 11 μg/mL, read-out: Viral Inhibition Rate) came to 27%. In addition, the inhibition at 33 µg/mL in the series on Vaccinia virus (Orthopoxvirus vaccinia, HFF, 33 μg/mL, read-out: Viral Inhibition Rate) worked out at 29%. For the same compound, in the series on Vaccinia virus (Orthopoxvirus vaccinia, HFF, 100 μg/mL, read-out: Viral Inhibition Rate), the inhibition at 100 µg/mL was determined as 55%.

Regarding `NC(=O)c1ncn([C@@H]2O[C@H](CO)[C@@H](O)[C@H]2O)n1` [Ribavirin], the “CTRL SI” value in series [1] is listed as over 46; in the series with Flu B Shanghai/361/02 [5] (control compound, Flu B Shanghai/361/02, Visual), over 160. The IC50 in series [1] (Influenza A virus, H5N1, MDCK, read-out: CTRL IC50) is over 320 µg/mL; in the series on Flu B Malaysia/2506/2004 [2] (read-out: CTRL IC50), over 320 µg/mL; in the series with Flu B Malaysia/2506/2004 [3] (read-out: CTRL IC50) it was over 320 µg/mL; in the series on Flu B Shanghai/361/02 [4], over 320 µg/mL; with Flu B Shanghai/361/02 [5] (read-out: CTRL IC50), over 320 µg/mL. The “CTRL EC50” value in the series with Flu B Malaysia/2506/2004 [2] turned out to be 10 µg/mL; with Flu B Malaysia/2506/2004 [3] (control compound, Flu B Malaysia/2506/2004, Visual) it was 3 µg/mL. In addition, the EC50 in the series on Flu B Shanghai/361/02 [5] (read-out: CTRL EC50) was 2 µg/mL (≈ 8.19 µM).

Regarding `C=C(CC[C@@H](C(=O)O)[C@H]1C[C@H](O)[C@@]2(C)C3=C(CC[C@]12C)[C@@]1(C)CC[C@H](O)C(C)(C)[C@@H]1CC3)C(C)C` [Sulphurenic acid], the results for the “Viral Inhibition Rate” value in the series with Vaccinia virus (3.7 μg/mL), with Vaccinia virus (11 μg/mL) and in the series with Vaccinia virus (33 μg/mL) were 36%, 51% and 58%, respectively.

Compound `CCO` [ethanol] yielded a CC50 in the series with HFF cells of 7%.
